Measurements reported in ChEMBL document CHEMBL2434831, “Imidazo[4,5-b]pyridine inhibitors of B-Raf kinase” (Bioorg Med Chem Lett, 2013).

Legend:
[1] = test system: Serine/threonine-protein kinase B-raf (Homo sapiens), P15056 [V600E]; test: Ratio of IC50 for B-Raf V600E mutant in human Malme-3M cells to IC50 for full length B-Raf V600E mutant (unknown origin); format: cell-based
[2] = target: T1, Serine/threonine-protein kinase B-raf (Homo sapiens, UniProt P15056, V600E); test: Inhibition of full length B-Raf V600E mutant (unknown origin)
[3] = target: T1, Serine/threonine-protein kinase B-raf; test: Inhibition of B-Raf V600E mutant in human Malme-3M cells assessed as basal ERK phosphorylation; format: cell-based
[4] = Permeability from apical to basolateral side in human Caco2 cells; format: ADME, cell-based; details: Caco-2, read-out: permeability
[5] = Inhibition of cytochrome P450 (unknown origin); format: ADME; details: human

T1 sequence (P15056 2-766 V600E limits assumed): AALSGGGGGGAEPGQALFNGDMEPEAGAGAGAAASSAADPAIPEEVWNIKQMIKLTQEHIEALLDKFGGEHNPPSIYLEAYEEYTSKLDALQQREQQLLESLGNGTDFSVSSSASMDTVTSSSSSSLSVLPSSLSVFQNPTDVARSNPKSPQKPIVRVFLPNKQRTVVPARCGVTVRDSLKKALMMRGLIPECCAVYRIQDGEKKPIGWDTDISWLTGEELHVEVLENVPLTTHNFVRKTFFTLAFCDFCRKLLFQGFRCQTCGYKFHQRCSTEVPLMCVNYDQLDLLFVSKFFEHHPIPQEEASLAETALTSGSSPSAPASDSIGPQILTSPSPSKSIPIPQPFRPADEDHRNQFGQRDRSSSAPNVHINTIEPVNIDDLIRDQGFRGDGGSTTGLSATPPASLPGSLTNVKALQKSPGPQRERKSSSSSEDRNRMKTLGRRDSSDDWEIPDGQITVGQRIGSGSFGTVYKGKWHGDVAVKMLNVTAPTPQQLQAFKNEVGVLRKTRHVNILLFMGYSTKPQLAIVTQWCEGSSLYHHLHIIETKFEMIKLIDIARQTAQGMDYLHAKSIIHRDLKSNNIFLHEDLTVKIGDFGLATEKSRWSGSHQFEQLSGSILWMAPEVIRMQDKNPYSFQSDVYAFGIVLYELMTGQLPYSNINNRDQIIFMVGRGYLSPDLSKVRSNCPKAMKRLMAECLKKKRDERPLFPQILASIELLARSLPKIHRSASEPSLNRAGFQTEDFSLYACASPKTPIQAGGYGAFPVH
Serine/threonine-protein kinase B-raf (Homo sapiens), P15056 [V600E], sequence (P15056 whole entry V600E): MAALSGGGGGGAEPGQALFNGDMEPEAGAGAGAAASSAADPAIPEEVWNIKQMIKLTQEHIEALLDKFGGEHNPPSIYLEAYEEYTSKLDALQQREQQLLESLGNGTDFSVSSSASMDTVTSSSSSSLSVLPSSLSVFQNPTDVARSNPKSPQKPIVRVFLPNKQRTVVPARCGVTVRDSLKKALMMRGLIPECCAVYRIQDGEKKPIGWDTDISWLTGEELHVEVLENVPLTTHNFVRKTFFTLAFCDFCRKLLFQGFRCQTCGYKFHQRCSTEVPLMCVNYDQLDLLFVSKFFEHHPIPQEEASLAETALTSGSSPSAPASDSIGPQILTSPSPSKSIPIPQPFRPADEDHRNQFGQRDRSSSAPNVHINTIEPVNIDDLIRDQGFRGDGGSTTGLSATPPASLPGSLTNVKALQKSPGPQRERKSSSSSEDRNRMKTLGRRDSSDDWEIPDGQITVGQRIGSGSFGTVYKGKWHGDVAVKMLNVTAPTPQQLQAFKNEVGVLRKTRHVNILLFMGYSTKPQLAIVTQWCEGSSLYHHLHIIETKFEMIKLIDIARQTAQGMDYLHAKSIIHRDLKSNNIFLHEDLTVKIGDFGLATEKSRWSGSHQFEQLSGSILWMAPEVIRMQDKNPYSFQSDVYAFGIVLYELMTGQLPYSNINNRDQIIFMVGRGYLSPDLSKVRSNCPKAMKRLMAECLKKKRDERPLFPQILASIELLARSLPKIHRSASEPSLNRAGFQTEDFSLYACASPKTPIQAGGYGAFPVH

Row | Ratio IC50 [1] | IC50 [2] [nM] | IC50 [3] [nM] | Papp A→B [4] [×10⁻⁶ cm/s] | inhibition (INH) [5] | Structure (SMILES)
1 | 219 | 1.2 | 271 | – | – | CCCS(=O)(=O)Nc1ccc(F)c(C(=O)Nc2cnc3[nH]c(-c4cccc(OC)c4)nc3c2)c1F
2 | 240 | 4.4 | 1050 | – | – | CCCS(=O)(=O)Nc1ccc(F)c(C(=O)Nc2cnc3[nH]c(-c4ccc(F)cc4)nc3c2)c1F
3 | 107 | 31 | 3330 | – | – | CCCS(=O)(=O)Nc1ccc(F)c(C(=O)Nc2cnc3[nH]c(C4CCC4)nc3c2)c1F
4 | 375 | 3 | 1130 | – | – | CCCS(=O)(=O)Nc1ccc(F)c(C(=O)Nc2cnc3[nH]c(-c4cccnc4)nc3c2)c1F
5 | 596 | 3.2 | 1910 | – | – | CCCS(=O)(=O)Nc1ccc(F)c(C(=O)Nc2cnc3[nH]c(-c4ccncc4)nc3c2)c1F
6 | 125 | 1.1 | 137 | – | – | CCCS(=O)(=O)Nc1ccc(F)c(C(=O)Nc2cnc3[nH]c(-c4ccc(OC)cc4)nc3c2)c1F
7 | 23 | 69 | 1560 | – | – | CCCS(=O)(=O)Nc1ccc(F)c(C(=O)Nc2cnc3[nH]c(C(C)(C)C)nc3c2)c1F
8 | 29 | 60 | 1730 | – | – | CCCS(=O)(=O)Nc1ccc(F)c(C(=O)Nc2cnc3[nH]c(C(C)C)nc3c2)c1F
9 | 35 | 27 | 948 | – | – | CCCS(=O)(=O)Nc1ccc(F)c(C(=O)Nc2cnc3[nH]c(-c4ccccc4Br)nc3c2)c1F
10 | 38 | 1.3 | 49 | 2.6 | – | CCCS(=O)(=O)Nc1ccc(F)c(C(=O)Nc2cnc3[nH]c(-c4ccc(C)cc4)nc3c2)c1F
11 | 30 | 59 | 1770 | – | – | CCCS(=O)(=O)Nc1ccc(F)c(C(=O)Nc2cnc3[nH]c(CC)nc3c2)c1F
12 | 71 | 2.2 | 157 | – | – | CCCS(=O)(=O)Nc1ccc(F)c(C(=O)Nc2cnc3[nH]c(-c4ccc(Cl)cc4)nc3c2)c1F
13 | 97 | 3.1 | 298 | – | – | CCCS(=O)(=O)Nc1ccc(F)c(C(=O)Nc2cnc3[nH]c(-c4cccc(F)c4)nc3c2)c1F
14 | – | 1.6 | 132 | – | – | CCCS(=O)(=O)Nc1ccc(F)c(C(=O)Nc2cnc3[nH]c(-c4ccccc4)nc3c2)c1F
15 | > 60 | 167 | > 10000 | – | – | CCCS(=O)(=O)Nc1ccc(F)c(C(=O)Nc2cnc3[nH]c(C4CCCNC4)nc3c2)c1F (stereo not drawn)
16 | 62 | 1.1 | 68 | – | – | CCCS(=O)(=O)Nc1ccc(F)c(C(=O)Nc2cnc3[nH]c(-c4cccc(Cl)c4)nc3c2)c1F
17 | 21 | 8 | 167 | – | – | CCCS(=O)(=O)Nc1ccc(F)c(C(=O)Nc2cnc3[nH]c(-c4ccccc4F)nc3c2)c1F
18 | 28 | 2.2 | 61 | 1.3 | – | CCCS(=O)(=O)Nc1ccc(F)c(C(=O)Nc2cnc3[nH]c(-c4ccc(Br)cc4)nc3c2)c1F
19 | > 93 | 107 | > 10000 | – | – | CCCS(=O)(=O)Nc1ccc(F)c(C(=O)Nc2cnc3[nH]c(C4CCNCC4)nc3c2)c1F
20 | 226 | 0.76 | 172 | – | – | CCCS(=O)(=O)Nc1ccc(F)c(C(=O)Nc2cnc3[nH]c(-c4cccc(Br)c4)nc3c2)c1F
21 | 43 | 40 | 1710 | – | – | CCCS(=O)(=O)Nc1ccc(F)c(C(=O)Nc2cnc3[nH]c(C)nc3c2)c1F
22 | 21 | 27 | 557 | – | – | CCCS(=O)(=O)Nc1ccc(F)c(C(=O)Nc2cnc3[nH]c(-c4ccccc4Cl)nc3c2)c1F
23 | 57 | 3.4 | 194 | – | – | CCCS(=O)(=O)Nc1ccc(F)c(C(=O)Nc2cnc3[nH]c(-c4ccc(F)c(F)c4)nc3c2)c1F

The remaining lines, values behind:

Row | Structure (SMILES) | Ratio IC50 [1] | IC50 [2] [nM] | IC50 [3] [nM] | Papp A→B [4] [×10⁻⁶ cm/s] | inhibition (INH) [5]
24 | CCCS(=O)(=O)Nc1ccc(F)c(C(=O)Nc2cnc3ccnn3c2)c1F | – | – | – | 11.4 | –
25 | CCCS(=O)(=O)Nc1ccc(F)c(C(=O)Nc2cnc3[nH]c(-c4ccccc4)cc3c2)c1F | 32 | 1 | 32 | 5.6 | –
26 | CCCS(=O)(=O)Nc1ccc(F)c(C(=O)Nc2cnc3[nH]c(-c4ccc(Cl)c(Cl)c4)nc3c2)c1F | 54 | 1.5 | 81 | 2 | Not Active
27 | CCCS(=O)(=O)Nc1ccc(F)c(C(=O)Nc2cnc3[nH]c(-c4ccc(OC(F)(F)F)cc4)nc3c2)c1F | 34 | 2.5 | 86 | – | –
28 | CCCS(=O)(=O)Nc1ccc(F)c(C(=O)Nc2cnc3cc(-c4ccc(F)cc4)nn3c2)c1F | 4.9 | – | – | – | –
29 | CCCS(=O)(=O)Nc1ccc(F)c(C(=O)Nc2cnc3cc(-c4ccc(Cl)cc4)nn3c2)c1F | 11 | 8.2 | 90 | – | –
30 | CCCS(=O)(=O)Nc1ccc(F)c(C(=O)Nc2cnc3[nH]c(-c4ccc(Cl)cc4)cc3c2)c1F | 8.4 | 2.4 | 20 | – | –
31 | CCCS(=O)(=O)Nc1ccc(F)c(C(=O)Nc2cnc3[nH]c(-c4ccc(S(C)(=O)=O)cc4)nc3c2)c1F | 527 | 1.4 | 728 | – | –
32 | CCCS(=O)(=O)Nc1ccc(F)c(C(=O)Nc2cnc3[nH]c(-c4ccc(C#N)cc4)nc3c2)c1F | 88 | 2.7 | 239 | – | –
33 | CCCS(=O)(=O)Nc1ccc(F)c(C(=O)Nc2cnc3[nH]c(-c4cccc(C(F)(F)F)c4)nc3c2)c1F | 112 | 1 | 113 | – | –
34 | CCCS(=O)(=O)Nc1ccc(F)c(C(=O)Nc2cnc3cc(-c4ccccc4)nn3c2)c1F | – | – | – | 15.6 | –
35 | CCCS(=O)(=O)Nc1ccc(F)c(C(=O)Nc2cnc3[nH]c(-c4ccc(F)cc4)cc3c2)c1F | 18 | 1.1 | 20 | – | –
36 | CCCS(=O)(=O)Nc1ccc(F)c(C(=O)Nc2cnc3[nH]ccc3c2)c1F | – | 42 | – | 7.3 | –
37 | CCCS(=O)(=O)Nc1ccc(F)c(C(=O)Nc2cnc3[nH]c(-c4ccc(C(F)(F)F)cc4)nc3c2)c1F | 62 | 1.4 | 89 | 1 | –
38 | CCCS(=O)(=O)Nc1ccc(F)c(C(=O)Nc2cnc3[nH]cnc3c2)c1F | 39 | – | – | 0.6 | –
39 | CCCS(=O)(=O)Nc1ccc(F)c(C(=O)Nc2cnc3[nH]ncc3c2)c1F | – | 18 | – | 1.3 | –
